For assay [1], the system named is human lung cancer cell line NCI-H460. Briefly: Cell proliferation inhibitory activity (Cell Counting Kit-8), lung cancer NCI-H460. Particulars: 96 h, NCI-H460, 4 days, read-out: Cell proliferation inhibitory activity (% Inhibition at 2.5 μM) Non-small cell lung cancer (NCI-H460). It counts as cell-based. How it is done:
(§1) The cell proliferation inhibitory activity was measured for compounds of the present invention represented by formula (I). Cancer cell proliferation inhibitory activity was measured using the Cell Counting Kit-8 (Dojindo). 2000 cells each of human colon cancer cell line HCT116 purchased from the American Type Culture Collection (Virginia, USA) were seeded into each well of a 96-well culture plate followed by the addition of a predetermined concentration of the compounds and cultivating in a CO2environment for 4 days at 37° C. On the fourth day of cultivating, the Cell Counting Kit-8 solution was added and absorbance (measuring wavelength: 450 nm, reference wavelength: 615 nm) was measured in accordance with the protocol provided with the kit.
(§2) Cancer cell proliferation inhibitory activity was also measured for human lung cancer cell line NCI-H460 and human prostate cancer cell line PC3 purchased from the American Type Culture Collection. 1000 and 3000 cells of NCI-H460 and PC3, respectively, were seeded into each well of a 96-well culture plate followed by testing in the same manner as the human colon cancer cell line and calculating the percentage of cell proliferation inhibition at 2.5 μM.
Background: Tetrazolium assays rely on reduction of a dye to a coloured formazan, in cell work by metabolically active cells.

Assay [2] has as its system human prostate cancer cell line PC3. The assay is described as follows: Cell proliferation inhibitory activity (Cell Counting Kit-8), prostate cancer PC3. It counts as cell-based. Particulars: 96 h, PC3, 4 days. As for the experimental part:
as §1, §2

The subject of assay [3] is human colon cancer cell line HCT116. The assay is described as follows: Cell proliferation inhibitory activity (Cell Counting Kit-8), colon cancer HCT116. In kind it is cell-based. Particulars: HCT-116, 96 h, HCT116, 4 days. How it is done:
as §1

The next assay concerns the target human PI3K(p110α/p85α) (Homo sapiens, UniProt P42336). Briefly: Measurement of PI3K inhibitory activity (AlphaScreen GST Detection Kit). It counts as biochemical. Particulars: 10 μM ATP, 4 μM PI(4,5)P2, read-out: Enzyme inhibitory activity (IC50, μM) PI3K α. How it is done:
The inhibitory activity of compounds of the present invention represented by formula (I) were measured with human PI3K(p110α/p85α) prepared in a baculovirus expression system using the AlphaScreen GST Detection Kit (Perkin Elmer, Inc.). A predetermined concentration of the compound dissolved in dimethylsulfoxide (DMSO) and PI3K were mixed in a 384-well assay plate and after allowing to stand for 20 minutes at room temperature, 4 μM PI(4,5)P2 (Echelon Corporation) and 10 μM ATP (5 mM Hepes, pH 7.5, 2.5 mM MgCl2) were added to initiate the reaction. After reacting for 15 minutes at 37° C., GST-GRP1 expressed and purified from Escherichia coli, Anti-GST Acceptor Beads (Perkin Elmer, Inc.), Streptavidin Donor Beads (Perkin Elmer, Inc.) and biotin-PI(3,4,5) P3 (Echelon Corporation) (10 mM Tris-HCl pH 7.4, 150 mM NaCl, 7.5 mM EDTA, 1 mM DTT, 0.1% Tween 20) were added, and after allowing to stand for 1 hour at room temperature, light at 520 to 620 nm emitted as a result of exciting with light at 680 nm was measured with the Envision measuring instrument (Perkin Elmer, Inc.).
Test Example 1 described above can be performed according to “Analytical Biochemistry, 2003, 313, 234-245; Alexander Gray et al”.
In general terms: In Alpha technology, singlet oxygen from a donor bead excites a nearby acceptor bead.

Where a name gives a salt, the structure may show the parent alone.

By IC50 is commonly meant the concentration that inhibits the measured activity by half.

human PI3K(p110α/p85α), sequence (P42336 whole entry): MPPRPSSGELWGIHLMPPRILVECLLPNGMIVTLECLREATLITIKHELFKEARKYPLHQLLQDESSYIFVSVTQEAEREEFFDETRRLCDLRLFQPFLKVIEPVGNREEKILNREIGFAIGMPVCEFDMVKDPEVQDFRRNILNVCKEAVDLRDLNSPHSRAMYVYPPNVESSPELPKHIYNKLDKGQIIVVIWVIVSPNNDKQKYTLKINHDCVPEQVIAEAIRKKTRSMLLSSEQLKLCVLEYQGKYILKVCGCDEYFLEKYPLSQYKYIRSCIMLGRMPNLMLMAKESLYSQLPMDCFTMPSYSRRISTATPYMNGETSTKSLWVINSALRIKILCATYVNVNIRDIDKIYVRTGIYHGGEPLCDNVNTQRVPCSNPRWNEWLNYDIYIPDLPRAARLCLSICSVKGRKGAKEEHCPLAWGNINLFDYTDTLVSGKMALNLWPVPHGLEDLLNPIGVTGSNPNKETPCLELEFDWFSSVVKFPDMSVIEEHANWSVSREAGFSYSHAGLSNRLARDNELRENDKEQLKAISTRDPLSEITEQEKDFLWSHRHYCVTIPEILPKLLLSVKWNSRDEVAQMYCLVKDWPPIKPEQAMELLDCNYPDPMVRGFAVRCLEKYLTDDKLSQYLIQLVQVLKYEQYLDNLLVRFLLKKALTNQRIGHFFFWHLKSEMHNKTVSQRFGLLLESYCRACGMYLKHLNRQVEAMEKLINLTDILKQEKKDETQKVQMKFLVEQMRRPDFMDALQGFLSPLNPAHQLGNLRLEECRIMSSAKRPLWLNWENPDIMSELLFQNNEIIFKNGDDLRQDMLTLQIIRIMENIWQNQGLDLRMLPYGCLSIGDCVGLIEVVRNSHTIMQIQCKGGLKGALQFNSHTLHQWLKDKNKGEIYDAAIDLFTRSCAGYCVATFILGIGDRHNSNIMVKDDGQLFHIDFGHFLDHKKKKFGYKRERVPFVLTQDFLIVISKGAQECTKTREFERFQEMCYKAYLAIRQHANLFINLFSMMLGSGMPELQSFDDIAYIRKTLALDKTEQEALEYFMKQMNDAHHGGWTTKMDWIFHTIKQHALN
human PI3K(p110α/p85α), sequence (P27986 whole entry partner): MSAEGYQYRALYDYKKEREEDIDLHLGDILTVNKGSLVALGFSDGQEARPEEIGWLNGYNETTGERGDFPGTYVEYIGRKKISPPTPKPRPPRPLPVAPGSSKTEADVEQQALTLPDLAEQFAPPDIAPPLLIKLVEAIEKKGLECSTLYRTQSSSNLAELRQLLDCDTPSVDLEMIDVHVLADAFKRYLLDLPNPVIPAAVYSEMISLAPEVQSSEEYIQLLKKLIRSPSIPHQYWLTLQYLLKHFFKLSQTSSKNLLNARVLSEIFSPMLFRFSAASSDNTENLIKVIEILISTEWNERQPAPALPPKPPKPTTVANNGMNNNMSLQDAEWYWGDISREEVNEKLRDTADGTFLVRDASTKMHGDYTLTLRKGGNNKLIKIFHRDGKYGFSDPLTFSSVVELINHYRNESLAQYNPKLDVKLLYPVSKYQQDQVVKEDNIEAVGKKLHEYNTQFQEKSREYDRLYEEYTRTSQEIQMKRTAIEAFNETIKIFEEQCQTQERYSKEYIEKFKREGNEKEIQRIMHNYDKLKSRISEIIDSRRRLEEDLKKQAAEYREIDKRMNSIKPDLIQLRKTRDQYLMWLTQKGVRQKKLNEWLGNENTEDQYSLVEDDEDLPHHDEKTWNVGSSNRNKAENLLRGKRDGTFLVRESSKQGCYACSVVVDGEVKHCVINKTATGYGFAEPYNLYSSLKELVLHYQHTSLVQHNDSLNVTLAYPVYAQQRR

For the molecule `Oc1cccc(-c2nc(N3CCOCC3)nc3c2CCN3c2ccncc2)c1` [Example A-09, 3-(2-Morpholin-4-yl-7-pyridin-4-yl-6,7-dihydro-5H-pyrrolo[2,3-d]pyrimidin-4-yl)-phenol], the inhibition at 2.5 µM in assay [1] worked out at 84%; in assay [2], 96%; in assay [3] it was 83%. In addition, the half-inhibitory concentration (IC50) on human PI3K(p110α/p85α) was found to be 0.009 µM.

On to `Oc1cccc(-c2nc(N3CCOCC3)nc3c2CCN3c2ccc3[nH]cnc3c2)c1` [Example A-14, 3-[7-(1H-benzimidazol-5-yl)-2-morpholin-4-yl-6,7-dihydro-5H-pyrrolo[2,3-d]pyrimidin-4-yl]-phenol], for which the figures for the inhibition at 2.5 µM in assay [1], in assay [2] and in assay [3] were 95%, 98% and 76%, respectively. Besides, the IC50 on human PI3K(p110α/p85α) came to 0.08 µM.

Consider `Oc1cc(-c2nc(N3CCOCC3)nc3c2CCN3c2ccncc2)ccc1F` [Example A-32, 2-Fluoro-5-(2-morpholin-4-yl-7-pyridin-4-yl-6,7-dihydro-5H-pyrrolo[2,3-d]pyrimidin-4-yl)-phenol trifluoroacetic acid salt], for which the inhibition at 2.5 µM stood at 79% in assay [1], 81% in assay [2] and 81% in assay [3]. In addition, the IC50 at human PI3K(p110α/p85α) amounted to 0.24 µM.

With `Oc1cccc(-c2nc(N3CCOCC3)nc3c2CCN3c2ccnc(N3CCOCC3)c2)c1` [Example A-44, 3-[2-Morpholin-4-yl-7-(2-morpholin-4-yl-pyridin-4-yl)-6,7-dihydro-5H-pyrrolo[2,3-d]pyrimidin-4-yl]-phenol], the inhibition at 2.5 µM in assay [1] came out at 82%; in assay [2] it was 79%; in assay [3] it was 69%. Further, the half-maximal inhibitory concentration (IC50) at human PI3K(p110α/p85α) stood at 0.05 µM.

Consider `CS(=O)(=O)Nc1cccc(N2CCc3c(-c4cccc(O)c4)nc(N4CCOCC4)nc32)c1` [Example A-48, N-{3-[4-(3-hydroxy-phenyl)-2-morpholin-4-yl-5,6-dihydro-pyrrolo[2,3-d]pyrimidin-7-yl]-phenyl}-methane sulfonamide trifluoroacetic acid salt], for which the values for the inhibition at 2.5 µM in assay [1], in assay [2] and in assay [3] were 67%, 62% and 55%, respectively. For the same molecule, at human PI3K(p110α/p85α), the half-inhibitory concentration (IC50) came to 0.02 µM.

For `Nc1ncc(-c2nc(N3CCOCC3)nc3c2CCN3c2cccnc2)cn1` [Example B-02, 5-(2-Morpholin-4-yl-7-pyridin-3-yl-6,7-dihydro-5H-pyrrolo[2,3-d]pyrimidin-4-yl)-pyrimidin-2-ylamine], the inhibition at 2.5 µM in assay [1] was determined as 95%; in assay [2] it was 96%; in assay [3], 87%. For the same molecule, the 50% inhibitory concentration (IC50) at human PI3K(p110α/p85α) turned out to be 0.03 µM.

Take `Nc1ccc(-c2nc(N3CCOCC3)nc3c2CCN3c2ccncc2)cn1` [Example B-03, 5-(2-Morpholin-4-yl-7-pyridin-4-yl-6,7-dihydro-5H-pyrrolo[2,3-d]pyrimidin-4-yl)-pyridin-2-ylamine]: the inhibition at 2.5 µM in assay [1] was 97%; in assay [2], 95%; in assay [3], 100%. Besides, at human PI3K(p110α/p85α), the IC50 came out at 0.24 µM.

On to `COc1ncc(-c2nc(N3CCOCC3)nc3c2CCN3c2cccnc2)c(OC)n1` [Example B-09, 4-(2,4-Dimethoxy-pyrimidin-5-yl)-2-morpholin-4-yl-7-pyridin-3-yl-6,7-dihydro-5H-pyrrolo[2,3-d]pyrimidine], for which the inhibition at 2.5 µM in assay [1] came out at 67%; in assay [2], 56%; in assay [3] it was 45%. The IC50 on human PI3K(p110α/p85α) is 0.26 µM.

Take `c1cc(N2CCc3c(-c4ccc5[nH]cnc5c4)nc(N4CCOCC4)nc32)ccn1` [Example B-22, 4-(1H-benzimidazol-5-yl)-2-morpholin-4-yl-7-pyridin-4-yl-6,7-dihydro-5H-pyrrolo[2,3-d]pyrimidine]: the inhibition at 2.5 µM in assay [1] is 72%; in assay [2] it was 22%; in assay [3], 71%. Further, the IC50 at human PI3K(p110α/p85α) came out at 0.3 µM.

Take `NCc1ccc(-c2nc(N3CCOCC3)nc3c2CCN3c2ccncc2)cc1` [Example B-32, 4-(2-Morpholin-4-yl-7-pyridin-4-yl-6,7-dihydro-5H-pyrrolo[2,3-d]pyrimidin-4-yl)-benzylamine hydrochloride]: the inhibition at 2.5 µM was found to be 67% in assay [1], 29% in assay [2] and 78% in assay [3]. Moreover, on human PI3K(p110α/p85α), the IC50 was determined as 0.47 µM.

As to `OCc1cc(-c2nc(N3CCOCC3)nc3c2CCN3c2ccncc2)ccc1F` [Example B-35, [2-Fluoro-5-(2-morpholin-4-yl-7-pyridin-4-yl-6,7-dihydro-5H-pyrrolo[2,3-d]pyrimidin-4-yl)-phenyl]-methanol], the inhibition at 2.5 µM in assay [1] turned out to be 71%; in assay [2], 61%; in assay [3], 78%. In addition, the IC50 on human PI3K(p110α/p85α) is 0.87 µM.

Take `Nc1ccc(-c2nc(N3CCOCC3)nc3c2CCN3c2ccncc2)nc1` [Example B-55, 6-(2-Morpholin-4-yl-7-pyridin-4-yl-6,7-dihydro-5H-pyrrolo[2,3-d]pyrimidin-4-yl)-pyridin-3-ylamine]: the inhibition at 2.5 µM in assay [1] is 58%; in assay [2], 47%; in assay [3], 79%. Besides, the IC50 on human PI3K(p110α/p85α) was found to be 0.34 µM.

`CNC(=S)N1CCc2c(-c3cccc(O)c3)nc(N3CCOCC3)nc21` [Example C-55, 4-(3-Hydroxy-phenyl)-2-morpholin-4-yl-5,6-dihydro-pyrrolo[2,3-d]pyrimidine-7-carbothioic acid methylamide trifluoroacetic acid salt]: the inhibition at 2.5 µM in assay [1] was 89%; in assay [2], 87%; in assay [3], 72%. Further, the IC50 on human PI3K(p110α/p85α) turned out to be 0.05 µM.

In the case of `CC(=O)N1CCc2c(-c3cnc(N)nc3)nc(N3CCOCC3)nc21` [Example D-01, 1-[4-(2-Amino-pyrimidin-5-yl)-2-morpholin-4-yl-5,6-dihydro-pyrrolo[2,3-d]pyrimidin-7-yl]-ethanone], the inhibition at 2.5 µM in assay [1] amounted to 92%; in assay [2], 89%; in assay [3] it was 83%. The concentration for half-maximal inhibition (IC50) at human PI3K(p110α/p85α) is 0.04 µM.

Turning to `CS(=O)(=O)N1CCc2c(-c3cnc(N)nc3)nc(N3CCOCC3)nc21` [Example D-02, 5-(7-Methanesulfonyl-2-morpholin-4-yl-6,7-dihydro-5H-pyrrolo[2,3-d]pyrimidin-4-yl)-pyrimidin-2-ylamine], the inhibition at 2.5 µM in assay [1] amounted to 83%; in assay [2], 87%; in assay [3], 81%.

As for `CCNC(=O)N1CCc2c(-c3cnc(N)nc3)nc(N3CCOCC3)nc21` [Example D-03, 4-(2-Amino-pyrimidin-5-yl)-2-morpholin-4-yl-5,6-dihydro-pyrrolo[2,3-d]pyrimidine-7-carboxylic acid ethylamide], the inhibition at 2.5 µM in assay [1] stood at 92%; in assay [2], 88%; in assay [3] it was 92%. The half-maximal inhibitory concentration (IC50) at human PI3K(p110α/p85α) was 0.02 µM.

With `Nc1ncc(-c2nc(N3CCOCC3)nc3c2CCN3c2ccc(CN3CCN(CCCCF)CC3)cc2)cn1` [Example D-330, 5-(7-{4-[4-(4-fluorobutyl)-piperazin-1-ylmethyl]-phenyl}-2-morpholin-4-yl-6,7-dihydro-5H-pyrrolo[2,3-d]pyrimidin-4-yl)-pyrimidin-2-ylamine], the inhibition at 2.5 µM in assay [1] was -13%; in assay [2] it was 0%; in assay [3], 25%.

(Values after patent US8022205B2, “Pyrimidine derivatives as PI3K inhibitor and use thereof” (Chugai Seiyaku Kabushiki Kaisha, priority 2006, dated 2011).)
